Data on two molecules can be found in patent publication US11707537B2, “Conformational restriction of cyanine fluorophores in far-red and near-IR range” (The United States of America, as represented by the …, priority 2017, dated 2023).

Each structure is given as a SMILES string. Marks after values point to notes of the source that are not given here.

What all share (assay type): physicochemical
A short description of data set [1]: Fluorescence emission and fluorescence quantum yield. The text has this: All commercially obtained reagents were used as received. 2,3,3-trimethyl indoline (S1), malonaldehyde bis(phenylimine) monohydrochloride, Grubb's 2nd generation and Hoyveda-Grubbs 2nd generation catalysts were purchased from Sigma-Aldrich (St. Louis, Mo.). Acrolein dimethyl acetal (2) was purchased from TCI America (Portland, Oreg.). 4-hydrazinylbenzoic acid (S5) was ordered from Oakwood Chemical (Estill, S.C.). 2-(2-bromoethyl)-1,3-dioxolane was purchased from Acros Organics (Geel, Belgium). NH2-PEG8-COOH was purchased from Thermo Scientific (Waltham, Mass.). Aminophalloidin tosylate was purchased from Enzo, Inc. (Farmingdale, N.Y.). Compounds S2, S4, and S8 were synthesized according to known procedures (Hanessian et al., J. Am. Chem. Soc. 2004, 126 (19), 6064-71; Hall et al., Nucleic Acids Res. 2012, 40 (14), e108; Park et al., Bioconjugate Chem. 2012, 23 (3), 350-362). Normal phase (60 Å, 20-40 m, RediSep® Rf Gold® silica or 60 Å, 35-70 m, RediSep® Rf silica) and reversed phase (100 Å, 20-40 micron particle size, RediSep® Rf Gold® Reversed-phase C18 or C18Aq) flash column chromatography was performed on a CombiFlash© Rf 200i (Teledyne Isco, Inc., Lincoln, Nebr.). Reversed-phase preparative HPLC was performed using an Agilent 1260 Infinity II LC system utilizing a SunFire Prep C18 column (100 Å, 5 m, 10×150 mm) obtained from Waters, Co (Milford, Mass.). High-resolution LC/MS analyses were conducted on a Thermo-Fisher LTQ-Orbitrap-XL hybrid mass spectrometer system with an Ion MAX API electrospray ion source in negative ion mode. Analytical LC/MS was performed using a Shimadzu LCMS-2020 Single Quadrupole utilizing a Kinetex C18 column (100 Å, 2.6 m, 2.1×50 mm) obtained from Phenomenex, Inc (Torrance, Calif.). Runs employed a gradient of 0-90% MeCN/0.1% aqueous formic acid over 4.5 min at a flow rate of 0.2 mL/min. ^1H NMR and ^13C NMR spectra were recorded on Bruker spectrometers (at 400 or 500 MHz or at 100 or 125 MHz) and are reported relative to deuterated solvent signals. Data for ^1H NMR spectra are reported as follows: chemical shift (6 ppm), multiplicity, coupling constant (Hz), and integration. Data for ^13C NMR spectra are reported in terms of chemical shift. Absorbance curves were obtained on a Shimadzu UV-2550 spectrophotometer operated by UVProbe 2.32 software. Molar absorption coefficients (F) were determined in PBS (50 mM, pH 7.4) or methanol (MeOH) using Beer's law, from plots of absorbance vs. concentration. Measurements were performed in 10 mm path length quartz cuvettes (Hellma 111-QS) that were maintained at room temperature, and reported values are averages (n≥3). Fluorescence traces were recorded on a PTI QuantaMaster steady-state spectrofluorimeter operated by FelixGX 4.2.2 software, with 4 nm excitation and emission slit widths, and a 0.1 s integration rate. […] Chem. Chem. Phys. 112009, 9850-9860). This instrument uses an integrating sphere to measure photons absorbed and emitted by a sample. […] Reported values are averages (n≥5). Data analysis and curve fitting were performed using MS Excel 2011 and GraphPad Prism 7. Light intensity measurements were performed with a Thorlabs PM200 optical power and energy meter fitted with an S120VC standard Si photodiode power sensor (200-1100 nm, 50 nW-50 mW). See JOC Standard Abbreviations and Acronyms for abbreviations (http://pubs.acs.org/paragonplus/submission/joceah/-joceah_abbreviations.pdf).

The nature of data set [2]: Fluorescence lifetime. The settings on record: for solvent viscosity sensitivity of fluorescence lifetime and quantum yield: solvents of Table 2.
The nature of data set [3]: Temperature dependence of fluorescence emission. The settings on record: in ethanol. The source says:
FIG. 7 is a graph showing the temperature dependence of fluorescence emission from compounds 4 (squares) and 10 (circles) in ethanol.
This is also due to photoisomerization in compound 10, which becomes more efficient at higher temperatures. The substantially longer lifetimes of compounds 4 and 7 relative to the unrestrained cyanine 10 point to significant potential for fluorescence lifetime imaging microscopy (FLIM).

The nature of data set [4]: Absorbance and molar absorption coefficient (Beer's law). Particulars: for shift in λmax: relative to unrestricted compound 10. The source says:
All commercially obtained reagents were used as received. 2,3,3-trimethyl indoline (S1), malonaldehyde bis(phenylimine) monohydrochloride, Grubb's 2nd generation and Hoyveda-Grubbs 2nd generation catalysts were purchased from Sigma-Aldrich (St. Louis, Mo.). Acrolein dimethyl acetal (2) was purchased from TCI America (Portland, Oreg.). 4-hydrazinylbenzoic acid (S5) was ordered from Oakwood Chemical (Estill, S.C.). 2-(2-bromoethyl)-1,3-dioxolane was purchased from Acros Organics (Geel, Belgium). NH2-PEG8-COOH was purchased from Thermo Scientific (Waltham, Mass.). Aminophalloidin tosylate was purchased from Enzo, Inc. (Farmingdale, N.Y.). Compounds S2, S4, and S8 were synthesized according to known procedures (Hanessian et al., J. Am. Chem. Soc. 2004, 126 (19), 6064-71; Hall et al., Nucleic Acids Res. 2012, 40 (14), e108; Park et al., Bioconjugate Chem. 2012, 23 (3), 350-362). Normal phase (60 Å, 20-40 m, RediSep® Rf Gold® silica or 60 Å, 35-70 m, RediSep® Rf silica) and reversed phase (100 Å, 20-40 micron particle size, RediSep® Rf Gold® Reversed-phase C18 or C18Aq) flash column chromatography was performed on a CombiFlash© Rf 200i (Teledyne Isco, Inc., Lincoln, Nebr.). Reversed-phase preparative HPLC was performed using an Agilent 1260 Infinity II LC system utilizing a SunFire Prep C18 column (100 Å, 5 m, 10×150 mm) obtained from Waters, Co (Milford, Mass.). High-resolution LC/MS analyses were conducted on a Thermo-Fisher LTQ-Orbitrap-XL hybrid mass spectrometer system with an Ion MAX API electrospray ion source in negative ion mode. Analytical LC/MS was performed using a Shimadzu LCMS-2020 Single Quadrupole utilizing a Kinetex C18 column (100 Å, 2.6 m, 2.1×50 mm) obtained from Phenomenex, Inc (Torrance, Calif.). Runs employed a gradient of 0-90% MeCN/0.1% aqueous formic acid over 4.5 min at a flow rate of 0.2 mL/min. ^1H NMR and ^13C NMR spectra were recorded on Bruker spectrometers (at 400 or 500 MHz or at 100 or 125 MHz) and are reported relative to deuterated solvent signals. Data for ^1H NMR spectra are reported as follows: chemical shift (6 ppm), multiplicity, coupling constant (Hz), and integration. Data for ^13C NMR spectra are reported in terms of chemical shift. Absorbance curves were obtained on a Shimadzu UV-2550 spectrophotometer operated by UVProbe 2.32 software. Molar absorption coefficients (F) were determined in PBS (50 mM, pH 7.4) or methanol (MeOH) using Beer's law, from plots of absorbance vs. concentration. Measurements were performed in 10 mm path length quartz cuvettes (Hellma 111-QS) that were maintained at room temperature, and reported values are averages (n≥3). Fluorescence traces were recorded on a PTI QuantaMaster steady-state spectrofluorimeter operated by FelixGX 4.2.2 software, with 4 nm excitation and emission slit widths, and a 0.1 s integration rate. A Quantaurus-QY spectrometer (Hamamatsu, model C11374) was used to determine absolute fluorescence quantum yields (ΦF) (Suzuki et al., Phys. Chem. Chem. Phys. 112009, 9850-9860). This instrument uses an integrating sphere to measure photons absorbed and emitted by a sample. Measurements were carried out at a concentration of 250 nM in either MeOH or PBS (50 mM, pH 7.4) and self-absorption corrections were performed using the instrument software. Reported values are averages (n≥5). Data analysis and curve fitting were performed using MS Excel 2011 and GraphPad Prism 7. Light intensity measurements were performed with a Thorlabs PM200 optical power and energy meter fitted with an S120VC standard Si photodiode power sensor (200-1100 nm, 50 nW-50 mW). See JOC Standard Abbreviations and Acronyms for abbreviations (http://pubs.acs.org/paragonplus/submission/joceah/-joceah_abbreviations.pdf).

The nature of data set [5]: TCEP addition, formation of phosphine-polyene adducts. The settings on record: 10 μM, TCEP in Tris (0.20 M, pH 9.0), absorbance at λmax. On the procedure:
FIG. 9 is a graph showing the effect of TCEP addition on absorbance of compound 7 and AF647 (10 μM each). Absorbance at λmax (compound 7 at 670 nm and AF647 at 650 nm) as a function of TCEP concentration in Tris (0.20 M, pH 9.0).
The formation of phosphine and thiol adducts in chemical and single molecule imaging contexts was also evaluated. TCEP (tris(2-carboxyethyl)phosphine) was add to compound 7 and AF647 (Alexa Fluor 647, available through ThermoFisher Scientific) (10 μM each) (Vaughan et al., JACS 2013, 135(4):1197-1200). Absorbance at λmax (compound 7 at 670 nm and AF647 at 650 nm) as a function of TCEP concentration in Tris (0.20 M, pH 9.0). Compound 7 (circles) appeared resistant to the formation of polyene-heteroatom adducts (FIG. 9).

`CC1(C)C2=C3C=C4C=C5C6=[N+](CC[C@H]5O[C@H]4C[C@H]3CCN2c2ccccc21)c1ccccc1C6(C)C` [Compound 4]: the ΦF is on record as 0.90 in data set [1] (Acetone, calculated by relative method); 0.68 in data set [1] (EtOH, calculated by relative method); 0.66 in data set [1] (Glycerol, calculated by relative method); 0.92 in data set [1] (MeCN, calculated by relative method); 0.69 in data set [1] (in methanol (MeOH), integrating sphere). In addition, the λem in data set [1] (in methanol) is on record as 677 nm. In addition, the τ is reported as 2.9 ns in data set [2] (Acetone); 2.5 ns in data set [2] (EtOH); 2.3 ns in data set [2] (Glycerol); 2.8 ns in data set [2] (MeCN); 2.5 ns in data set [2] (in methanol (MeOH)). Moreover, the “solvent viscosity sensitivity of fluorescence lifetime and quantum yield” value in data set [2] is listed as “largely solvent viscosity insensitive”. Besides, the “temperature sensitivity of fluorescence emission” value in data set [3] is recorded as “insensitive to temperature”. Further, the ε in data set [4] (in methanol) was 206,000 M^−1cm^−1. In data set [4] (in methanol), the λmax turned out to be 662 nm. The “shift in λmax” value in data set [4] was “approximately 25 nm”.
For the molecule `CC1(C)C2=C3C=C4C=C5C6=[N+](CC[C@H]5O[C@H]4C[C@H]3CCN2c2ccc(S(=O)(=O)[O-])cc21)c1ccc(C(=O)O)cc1C6(C)C` [Compound 7], the λem in data set [1] (in pH 7.4 PBS) was 683^b nm. Also, the τ in data set [2] (in H2O) is reported as 1.7^c ns. Also, the “solvent viscosity sensitivity of fluorescence lifetime and quantum yield” value in data set [2] is “largely solvent viscosity insensitive”. The λmax in data set [4] (in pH 7.4 PBS) is reported as 670^b nm. The ε in data set [4] (no solvent footnote on this cell (PBS or methanol)) was 190,000 M^−1cm^−1. Also, the “shift in λmax” value in data set [4] is “approximately 25 nm”. For the same molecule, the “formation of polyene-heteroatom adducts” value in data set [5] was “resistant”.
